Columns and labels:
[1] = test system: 3T3-L1 preadipocytes; test: Insulin-sensitizing activity in 3T3-L1 preadipocyte model, triglyceride accumulation in cells as indication of differentiation; assay type: cell-based; details: for The Percentage of Triglyceride Increased in 3T3-L1 Cells / activation at 0.01 µM / activation at 0.1 µM / activation at 1 µM: average data in 3 pores (Rosiglitazone: n = 22, mean ± SE); for insulin-sensitizing activity (in words): summary of table 2; for activation at 0.01 µM / activation at 0.1 µM / activation at 1 µM: Mus musculus, 3T3-L1, read-out: The Percentage of Triglyceride Increased in 3T3-L1 Cells
Procedure: Insulin-sensitizing agents can promote the differentiation of preadipocytes toward adipocytes, thus insulin-sensitizing agents could be identified according to the differentiation of pre-adipocytes. Following the methods reported in the literature [Kletzin B F. Mol. Pharm. 1991, 41, 393], the insulin-sensitizing activities of the compounds of formula (I) of the present invention were evaluated in 3T3-L1 pradipocyte model with triglyceride accumulation in cells as the indication of differentiation.
The 3T3-L1 preadipocytes were incubated in DMEM (Dulbecco's Modified Eagle's Medium) containing 10% NBS (newborn calf serum) and subcultured every 3 days. The calls were transferred to 24-pore plates, and after the pores were filled completely the cells were treated with IBMX (isobutylmethylxanthine) (0.5 mmol/L), DEX (dexamethasone) (1 μmol/L) and insulin (1.0 μmol/L) for 48 h. Different amounts of test compounds were incubated with the cells until the end of the experiment. Cells were collected and the contents of triglyceride and protein therein were determined by colorimetry. Enhancements of triglyceride in cells after drug-administrating were calculated.
The positive control group was rosiglitazone, and the solvent control group was a culturing medium containing 0.1% of DMSO. The enhancement of triglyceride in cells was determined in three different concentrations (0.01, 0.1, 1 μmol/L) of the tested compounds.

| Compound | melting point | The Percentage of Triglyceride Increased in 3T3-L1 Cells ([1]; concentration 0.01 μmol/L) | The Percentage of Triglyceride Increased in 3T3-L1 Cells ([1]; concentration 0.1 μmol/L) | The Percentage of Triglyceride Increased in 3T3-L1 Cells ([1]; concentration 1 μmol/L) | insulin-sensitizing activity (in words) [1] | activation at 0.01 µM ([1]; concentration 0.01 μmol/L) | activation at 0.1 µM ([1]; concentration 0.1 μmol/L) | activation at 1 µM ([1]; concentration 1 μmol/L) |
| --- | --- | --- | --- | --- | --- | --- | --- | --- |
| Cc1oc(-c2ccccc2)nc1CCOc1ccc(C[C@H](NC(=O)[C@H]2CC[C@H](C(C)C)CC2)C(=O)O)cc1 (relative stereo) [Compound 1, (2S)-2-[N-(trans-4-isopropylcyclohexylcarbonyl)amino]-3-[4-[2-(5-methyl-2-phenyl-4-oxazole)ethoxy]phenyl]propionic acid] |  | 1.56% | 21.18% | 47.09% | stronger insulin-sensitizing activity |  |  |  |
| CC(C)[C@H]1CC[C@H](C(=O)N[C@H](Cc2ccc(OCc3ccccc3)cc2)C(=O)O)CC1 [Compound 10, (2R)-2-[N-(trans-4-isopropylcyclohexylcarbonyl)amino]-3-(4-benzyloxyphenyl)propionic acid] | 140 to 142 °C (dec.) |  |  |  |  |  |  |  |
| CC(C)[C@H]1CC[C@H](C(=O)N[C@H](Cc2ccc(OCCN(C)c3nc4ccccc4o3)cc2)C(=O)O)CC1 [Compound 4, (2R)-2-[N-(trans-4-isopropylcyclohexylcarbonyl)amino]-3-[4-[2-[N-methyl-N-(2-benzoxazolyl)amino]ethoxy]phenyl]propionic acid] | 179 to 180 °C |  |  |  |  | -4.77% | 5.05% | 11% |
| CC(C)[C@H]1CC[C@H](C(=O)N[C@H](Cc2ccc(OCc3ccc(C(F)(F)F)cc3)cc2)C(=O)O)CC1 [Compound 8, (2R)-2-[N-(trans-4-isopropylcyclohexylcarbonyl)amino]-3-[4-(4-trifluoromethylbenzyloxy)phenyl]propionic acid] | 171 to 172 °C |  |  |  |  |  |  |  |
| CC(C)[C@H]1CC[C@H](C(=O)N[C@@H](Cc2ccc(OCCn3ccc4ccccc43)cc2)C(=O)O)CC1 [Compound 5, (2S)-2-[N-(trans-4-isopropylcyclohexylcarbonyl)amino]-3-[4-[2-(1-indolyl)ethoxy]phenyl]propionic acid] |  |  |  |  |  | -1.54% | -4.64% | -6.92% |
| CC(C)[C@H]1CC[C@H](C(=O)N[C@@H](Cc2ccc(OCc3ccc(C(F)(F)F)cc3)cc2)C(=O)O)CC1 [Compound 7, (2S)-2-[N-(trans-4-isopropylcyclohexylcarbonyl)amino]-3-[4-(4-trifluoromethylbenzyloxy)phenyl]propionic acid] | 171 to 172 °C |  |  |  |  | 11.8% | 5.8% | 4.68% |
| CC(C)[C@H]1CC[C@H](C(=O)N[C@@H](Cc2ccc(OCc3ccccc3)cc2)C(=O)O)CC1 [Compound 9, (2S)-2-[N-(trans-4-isopropylcyclohexylcarbonyl)amino]-3-(4-benzyloxyphenyl)propionic acid] | 140 to 142 °C (dec.) |  |  |  |  | 6% | 3.35% | -0.69% |
| CCCCOc1ccc(C[C@H](NC(=O)[C@H]2CC[C@H](C(C)C)CC2)C(=O)O)cc1 [Compound 11, (2S)-2-[N-(trans-4-isopropylcyclohexylcarbonyl)amino]-3-(4-butoxyphenyl)propionic acid] |  |  |  |  |  | 0% | 0.36% | 2.23% |
| CC(C)[C@H]1CC[C@H](C(=O)N[C@@H](Cc2ccc(OCCN(C)c3nc4ccccc4o3)cc2)C(=O)O)CC1 [Compound 3, (2S)-2-[N-(trans-4-isopropylcyclohexylcarbonyl)amino]-3-[4-[2-[N-methyl-N-(2-benzoxazolyl)amino]ethoxy]phenyl]propionic acid] | 179 to 180 °C (dec.) |  |  |  |  | -0.37% | 6.7% | 20% |
| Cc1oc(-c2ccccc2)nc1CCOc1ccc(C[C@@H](NC(=O)[C@H]2CC[C@H](C(C)C)CC2)C(=O)O)cc1 [Compound 2, (2R)-2-[N-(trans-4-isopropylcyclohexylcarbonyl)amino]-3-[4-[2-(5-methyl-2-phenyl-4-oxazolyl)ethoxy]phenyl]propionic acid] | 151 to 153 °C (dec.) |  |  |  | stronger insulin-sensitizing activity | 10.7% | 16.5% | 30.7% |
| CCCCOc1ccc(C[C@@H](NC(=O)[C@H]2CC[C@H](C(C)C)CC2)C(=O)O)cc1 [Compound 12, (2R)-2-[N-(trans-4-isopropylcyclohexylcarbonyl)amino]-3-(4-butoxyphenyl)propionic acid] | 120 to 121 °C |  |  |  |  |  |  |  |

The next lines start with results.

| melting point | Compound | The Percentage of Triglyceride Increased in 3T3-L1 Cells ([1]; concentration 0.01 μmol/L) | The Percentage of Triglyceride Increased in 3T3-L1 Cells ([1]; concentration 0.1 μmol/L) | The Percentage of Triglyceride Increased in 3T3-L1 Cells ([1]; concentration 1 μmol/L) | insulin-sensitizing activity (in words) [1] | activation at 0.01 µM ([1]; concentration 0.01 μmol/L) | activation at 0.1 µM ([1]; concentration 0.1 μmol/L) | activation at 1 µM ([1]; concentration 1 μmol/L) |
| --- | --- | --- | --- | --- | --- | --- | --- | --- |
| 168 to 170 °C | CCOc1ccc(C[C@@H](NC(=O)[C@H]2CC[C@H](C(C)C)CC2)C(=O)O)cc1 [Compound 14, (2R)-2-[N-(trans-4-isopropylcyclohexylcarbonyl)amino]-3-(4-ethoxyphenyl)propionic acid] |  |  |  |  |  |  |  |
| 156 to 157 °C | CC(C)[C@H]1CC[C@H](C(=O)N[C@H](Cc2ccc(O)cc2)C(=O)O)CC1 [Compound 18, (2R)-2-[N-(trans-4-isopropylcyclohexylcarbonyl)amino]-3-(4-hydroxyphenyl)propionic acid] |  |  |  |  |  |  |  |
| 158 to 160 °C | CC(C)[C@H]1CC[C@H](C(=O)N[C@@H](Cc2ccc(OCCN(C)c3ccccn3)cc2)C(=O)O)CC1 [Compound 19, (2S)-2-[N-(trans-4-isopropylcyclohexylcarbonyl)amino]-3-[4-[2-[N-methyl-N-(2-pyridyl)amino]ethoxyl]phenyl]propionic acid] |  |  |  |  | -1.46% | -2.24% | -1.62% |
| 149 to 151 °C | COc1ccc(C[C@H](NC(=O)[C@H]2CC[C@H](C(C)C)CC2)C(=O)O)cc1 [Compound 15, (2S)-2-[N-(trans-4-isopropylcyclohexylcarbonyl)amino]-3-(4-methoxyphenyl)propionic acid] |  |  |  |  | -0.21% | 5.99% | 5.04% |
| 156 to 157 °C | CC(C)[C@H]1CC[C@H](C(=O)N[C@@H](Cc2ccc(O)cc2)C(=O)O)CC1 [Compound 17, (2S)-2-[N-(trans-4-isopropylcyclohexylcarbonyl)amino]-3-(4-hydroxyphenyl)propionic acid] |  |  |  |  | 0.22% | 10.8% | 0.85% |
| 168 to 170 °C | CCOc1ccc(C[C@H](NC(=O)[C@H]2CC[C@H](C(C)C)CC2)C(=O)O)cc1 [Compound 13, (2S)-2-[N-(trans-4-isopropylcyclohexylcarbonyl)amino]-3-(4-ethoxyphenyl)propionic acid] |  |  |  |  | 1.89% | 1.83% | -4.74% |

From patent US20060154970A1, “Alanines compounds, method of preparing them and their use” (priority 2003, published 2006)
